Laboratory results taken from the supplement of paper PMC10307832.

Legend:
Assay in all cases: relative viability (nuclei count vs DMSO), 5 days (fraction); higher = more cells survive
Fedratinib + Dasatinib = compound: Cc1cnc(Nc2ccc(OCCN3CCCC3)cc2)nc1Nc1cccc(S(=O)(=O)NC(C)(C)C)c1 [Fedratinib] + Cc1nc(Nc2ncc(C(=O)Nc3c(C)cccc3Cl)s2)cc(N2CCN(CCO)CC2)n1 [Dasatinib] (partner 0.075 µM)
Summary of the method: (§1)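 Lung cancer cell lines in 1536-well plates got either a single drug or a fixed anchor-drug dose together with five library-drug doses (not always all listed) in √10 steps, by pin tool, on the day after seeding. Nuclei were counted after 5 days, and relative viability is the treated-to-vehicle ratio of nuclei counts. Values are medians of duplicate plates.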

GW-2580 + Decitabine = compound: COC1=CC=C(C=C1)COC2=C(C=C(C=C2)CC3=CN=C(N=C3N)N)OC [GW-2580] + Nc1ncn([C@H]2C[C@H](O)[C@@H](CO)O2)c(=O)n1 [Decitabine] (partner 2 µM)
Summary of the method: as §1

GW-2580 + Phenformin = compound: COC1=CC=C(C=C1)COC2=C(C=C(C=C2)CC3=CN=C(N=C3N)N)OC [GW-2580] + N=C(N)NC(=N)NCCc1ccccc1 [Phenformin] (partner 250 µM)
Summary of the method: as §1

GW-2580 + Tozasertib = compound: COC1=CC=C(C=C1)COC2=C(C=C(C=C2)CC3=CN=C(N=C3N)N)OC [GW-2580] + Cc1cc(Nc2cc(N3CCN(C)CC3)nc(Sc3ccc(NC(=O)C4CC4)cc3)n2)n[nH]1 [Tozasertib] (partner 0.1 µM)
Summary of the method: as §1

GW-2580 + Bortezomib = compound: COC1=CC=C(C=C1)COC2=C(C=C(C=C2)CC3=CN=C(N=C3N)N)OC [GW-2580] + CC(C)C[C@H](NC(=O)[C@H](Cc1ccccc1)NC(=O)c1cnccn1)B(O)O [Bortezomib] (partner 0.002 µM)
Summary of the method: as §1

Cell Line | relative viability (Fedratinib + Dasatinib; first compound 0.1 µM) | relative viability (Fedratinib + Dasatinib; first compound 0.3162 µM) | relative viability (Fedratinib + Dasatinib; first compound 1 µM) | relative viability (GW-2580 + Decitabine; first compound 0.08 µM) | relative viability (GW-2580 + Decitabine; first compound 0.8 µM) | relative viability (GW-2580 + Decitabine; first compound 2.53 µM) | relative viability (GW-2580 + Decitabine; first compound 8 µM) | relative viability (GW-2580 + Phenformin; first compound 0.08 µM) | relative viability (GW-2580 + Phenformin; first compound 0.8 µM) | relative viability (GW-2580 + Phenformin; first compound 2.53 µM) | relative viability (GW-2580 + Phenformin; first compound 8 µM) | relative viability (GW-2580 + Tozasertib; first compound 0.08 µM) | relative viability (GW-2580 + Tozasertib; first compound 0.8 µM) | relative viability (GW-2580 + Tozasertib; first compound 2.53 µM) | relative viability (GW-2580 + Tozasertib; first compound 8 µM) | relative viability (GW-2580 + Bortezomib; first compound 0.08 µM) | relative viability (GW-2580 + Bortezomib; first compound 0.8 µM) | relative viability (GW-2580 + Bortezomib; first compound 2.53 µM) | relative viability (GW-2580 + Bortezomib; first compound 8 µM)
A-427 | 0.74 | 0.733 | 0.249 | 0.541 | 0.555 | 0.531 | 0.618 | 0.407 | 0.258 | 0.303 | 0.269 | 0.198 | 0.208 | 0.19 | 0.172 | 1.14 | 1.13 | 0.915 | 0.878
ABC-1 | 0.499 | 0.629 | 0.569 | 0.72 | 1.01 | 1.22 | 0.934 | 0.236 | 0.226 | 0.234 | 0.224 | 0.157 | 0.147 | 0.179 | 0.193 | 0.295 | 0.324 | 0.287 | 0.306
BEN | 0.36 | 0.312 | 0.294 | 0.703 | 0.79 | 0.619 | 0.677 | 0.266 | 0.33 | 0.255 | 0.317 | 0.684 | 0.396 | 0.577 | 0.492 | 0.674 | 0.879 | 0.55 | 0.799
COR-L23 | 0.487 | 0.484 | 0.512 | 0.451 | 0.462 | 0.448 | 0.432 | 0.458 | 0.53 | 0.478 | 0.463 | 0.209 | 0.202 | 0.179 | 0.185 | 1.2 | 1.21 | 0.929 | 1.2
COR-L 105 | 0.29 | 0.319 | 0.287 | 0.755 | 0.739 | 0.675 | 0.558 | 0.529 | 0.478 | 0.508 | 0.491 | 0.317 | 0.311 | 0.352 | 0.387 | 0.829 | 0.99 | 0.67 | 0.797
ChaGo-K-1 | 0.515 | 0.437 | 0.496 | 0.561 | 0.515 | 0.495 | 0.519 | 0.594 | 0.476 | 0.454 | 0.514 | 0.257 | 0.224 | 0.233 | 0.234 | 0.996 | 1.09 | 0.989 | 1
EKVX | 0.498 | 0.681 | 0.532 | 0.578 | 0.749 | 0.345 | 0.335 | 0.244 | 0.264 | 0.212 | 0.233 | 0.553 | 0.428 | 0.313 | 0.321 | 1.09 | 1.12 | 0.874 | 1.01
EMC-BAC-2 | 0.289 | 0.362 | 0.285 | 0.977 | 0.961 | – | 0.943 | 0.558 | 0.501 | 0.416 | 0.493 | 0.279 | 0.261 | 0.24 | 0.261 | 1.11 | 1.16 | 1.02 | 1.05
EPLC-272H | 0.364 | 0.345 | 0.0536 | 0.391 | 0.366 | – | 0.368 | 0.272 | 0.339 | – | 0.354 | 0.321 | 0.266 | – | 0.214 | 1.33 | 1.07 | 0.963 | 1.01
H3255 | 0.397 | 0.345 | 0.293 | 0.564 | 0.613 | 0.557 | 0.576 | 0.277 | 0.848 | 0.702 | 0.359 | 0.619 | 0.217 | 0.664 | 0.47 | 0.542 | 0.998 | 0.579 | 0.749
HARA | 0.217 | 0.155 | 0.24 | 0.658 | 0.617 | 0.599 | 0.409 | 0.461 | 0.524 | 0.328 | 0.304 | 0.111 | 0.127 | 0.0978 | 0.0792 | 1.2 | 1.17 | 1.33 | 1.31
HCC-15 | 0.508 | 0.58 | 0.337 | 0.631 | 0.818 | 0.636 | 0.69 | 0.537 | 0.486 | 0.426 | 0.515 | 0.489 | 0.562 | 0.615 | 0.222 | 1.06 | 1.16 | 1.05 | 1.02
HCC-78 | 0.384 | 0.309 | 0.306 | 0.699 | 0.786 | 0.634 | 0.698 | 0.743 | 0.655 | 0.543 | 0.583 | 0.253 | 0.357 | 0.401 | 0.314 | 0.457 | 0.422 | 0.353 | 0.465
HCC-366 | 0.601 | 0.595 | 0.428 | 0.328 | 0.375 | 0.352 | 0.449 | 0.682 | 0.573 | 0.595 | 0.546 | 0.102 | 0.146 | 0.12 | 0.19 | 1.22 | 1.08 | 1.24 | 1.12
HCC-827 | 0.249 | 0.344 | 0.298 | 0.275 | 0.317 | 0.299 | 0.319 | 0.451 | 0.442 | 0.436 | 0.447 | 0.557 | 0.469 | 0.47 | 0.371 | 0.964 | 1.12 | 1.01 | 0.952
HOP-62 | 0.739 | 0.6 | 0.503 | 0.174 | 0.192 | 0.231 | 0.23 | 0.758 | 0.744 | 0.637 | 0.655 | 0.404 | 0.374 | 0.333 | 0.326 | 1.13 | 0.861 | 0.406 | 0.727
